Results: patent publication US20240287045A1, “CRYSTAL FORM OF PYRIMIDINE DERIVATIVE AND PREPARATION METHOD THEREFOR” (ZHEJIANG HISUN PHARMACEUTICAL CO., LTD., priority 2021, published 2024)

Assays:
Type in all cases: physicochemical
[1] = Fluidity test (angle of repose); conditions: for fluidity / angle of repose (in words): crystal forms compared with amorphous form
Method: (§1) The amorphous form of the compound of formula I prepared in Preparation Example, the crystal form A of the compound of formula I prepared in Example 1, the crystal form B of the compound of formula I prepared in Example 32, the crystal form C of the compound of formula I prepared in Example 48, the crystal form D of the compound of formula I prepared in Example 51, and the crystal form E of the compound of formula I prepared in Example 54 were measured for angle of repose, and the specific results are shown in Table 8 below: […]

[2] = Granularity experiment (D50, D90); conditions: for D50 / D90: granularity
Method: as §1, with “for granularity,” for “for angle of repose,”, “Table 7” for “Table 8”

[3] = Stability experiment: purity after 10 days of humidity, heat or light; conditions: for stability compared with the amorphous form: conclusion from Table 6
Method: High-performance liquid chromatography (HPLC) test conditions involved in the present disclosure: the model of the liquid chromatograph was Agilent 1260; the chromatographic column was Waters XBridge C18 150*4.6 mm 3.5 μm; the detection wavelength was 234 nm; and the column temperature was 25° C.
The amorphous form of the compound of formula I prepared in Preparation Example, the crystal form A of the compound of formula I prepared in Example 1, the crystal form B of the compound of formula I prepared in Example 32, the crystal form C of the compound of formula I prepared in Example 48, the crystal form D of the compound of formula I prepared in Example 51, and the crystal form E of the compound of formula I prepared in Example 54 were placed in 75% RH, 92.5% RH, 40° C., 60° C. and light for 10 days respectively, and the X-ray powder diffraction pattern and purity of each crystal form were measured.

Hygroscopicity test = conditions: for Hygroscopicity: 75% RH and 25° C. for 24 h, by weighing; for hygroscopicity (in words): crystal forms compared with amorphous form
Method: The amorphous form of the compound of formula I prepared in Preparation Example, the crystal form A of the compound of formula I prepared in Example 1, the crystal form B of the compound of formula I prepared in Example 32, the crystal form C of the compound of formula I prepared in Example 48, the crystal form D of the compound of formula I prepared in Example 51, and the crystal form E of the compound of formula I prepared in Example 54 were placed in an environment of 75% RH and 25° C. for 24 h and then weighed to calculate the hygroscopicity, respectively.

angle of repose ([1]; measurement 1) | angle of repose ([1]; measurement 2) | angle of repose ([1]; measurement 3) | D50 relative to the crystal forms ([2]; amorphous form D50 as share of crystal forms A-E) | D90 relative to the crystal forms ([2]; amorphous form D90 as share of crystal forms A-E) | granularity (in words) ([2]; compared with crystal forms A-E) | D50 [2] | D90 [2] | D50 ([2]; listed as amorphous form) | D90 ([2]; listed as amorphous form) | purity ([3]; 40° C. for 10 days) | purity ([3]; 60° C. for 10 days) | purity ([3]; 75% RH for 10 days) | purity ([3]; 92.5% RH for 10 days) | purity ([3]; Day 0) | purity ([3]; Light for 10 days) | Hygroscopicity (Hygroscopicity test) | stability compared with the amorphous form [3] | Structure (SMILES) | fluidity / angle of repose (in words) [1] | hygroscopicity (in words) (Hygroscopicity test)
34.2° | 35.4° | 33.9° |  |  |  | 21.77 μm | 70.88 μm |  |  | 99.66 | 99.66 | 99.71 | 99.68 | 99.72 | 99.70 | 0.15% | better stability | C=CC(=O)Nc1cc(N2CCN(CC)C3(CC3)C2)ccc1Nc1cc(N(C)C(=O)Nc2c(Cl)c(OC)cc(OC)c2Cl)ncn1 [Crystal form C, N-(2-((6-(3-(2,6-dichloro-3,5-dimethoxyphenyl)-1-methylureido)pyrimidin-4-yl)amino)-5-(4-ethyl-4,7-diazaspiro[2.5]octan-7-yl)phenyl)acrylamide] | significantly better than the amorphous form in terms of fluidity | significantly better than the amorphous form in terms of hygroscopicity
35.6° | 36.2° | 35.1° |  |  |  | 20.98 μm | 70.49 μm |  |  | 99.52 | 99.49 | 99.54 | 99.54 | 99.55 | 99.53 | 0.16% | better stability | C=CC(=O)Nc1cc(N2CCN(CC)C3(CC3)C2)ccc1Nc1cc(N(C)C(=O)Nc2c(Cl)c(OC)cc(OC)c2Cl)ncn1 [Crystal form D, N-(2-((6-(3-(2,6-dichloro-3,5-dimethoxyphenyl)-1-methylureido)pyrimidin-4-yl)amino)-5-(4-ethyl-4,7-diazaspiro[2.5]octan-7-yl)phenyl)acrylamide] | significantly better than the amorphous form in terms of fluidity | significantly better than the amorphous form in terms of hygroscopicity
35.5° | 36.1° | 35.9° |  |  |  | 20.98 μm | 69.99 μm |  |  | 99.53 | 99.52 | 99.56 | 99.54 | 99.56 | 99.55 | 0.20% | better stability | C=CC(=O)Nc1cc(N2CCN(CC)C3(CC3)C2)ccc1Nc1cc(N(C)C(=O)Nc2c(Cl)c(OC)cc(OC)c2Cl)ncn1 [Crystal form E, N-(2-((6-(3-(2,6-dichloro-3,5-dimethoxyphenyl)-1-methylureido)pyrimidin-4-yl)amino)-5-(4-ethyl-4,7-diazaspiro[2.5]octan-7-yl)phenyl)acrylamide] | significantly better than the amorphous form in terms of fluidity | significantly better than the amorphous form in terms of hygroscopicity

More lines, now with the values behind:

Structure (SMILES) | angle of repose ([1]; measurement 1) | angle of repose ([1]; measurement 2) | angle of repose ([1]; measurement 3) | D50 relative to the crystal forms ([2]; amorphous form D50 as share of crystal forms A-E) | D90 relative to the crystal forms ([2]; amorphous form D90 as share of crystal forms A-E) | granularity (in words) ([2]; compared with crystal forms A-E) | D50 [2] | D90 [2] | D50 ([2]; listed as amorphous form) | D90 ([2]; listed as amorphous form) | purity ([3]; 40° C. for 10 days) | purity ([3]; 60° C. for 10 days) | purity ([3]; 75% RH for 10 days) | purity ([3]; 92.5% RH for 10 days) | purity ([3]; Day 0) | purity ([3]; Light for 10 days) | Hygroscopicity (Hygroscopicity test) | stability compared with the amorphous form [3] | fluidity / angle of repose (in words) [1] | hygroscopicity (in words) (Hygroscopicity test)
C=CC(=O)Nc1cc(N2CCN(CC)C3(CC3)C2)ccc1Nc1cc(N(C)C(=O)Nc2c(Cl)c(OC)cc(OC)c2Cl)ncn1 [Amorphous form, N-(2-((6-(3-(2,6-dichloro-3,5-dimethoxyphenyl)-1-methylureido)pyrimidin-4-yl)amino)-5-(4-ethyl-4,7-diazaspiro[2.5]octan-7-yl)phenyl)acrylamide] | 43.3° | 42.6° | 41.9° | ≤ 13% | ≤ 33% | remarkably small granularity | 2.68 μm | 22.82 μm | 2.68 μm | 22.82 μm | 94.67 | 94.73 | 94.93 | 94.83 | 95.33 | 94.97 | 0.52% |  | significantly larger | significantly greater
C=CC(=O)Nc1cc(N2CCN(CC)C3(CC3)C2)ccc1Nc1cc(N(C)C(=O)Nc2c(Cl)c(OC)cc(OC)c2Cl)ncn1 [Crystal form A, N-(2-((6-(3-(2,6-dichloro-3,5-dimethoxyphenyl)-1-methylureido)pyrimidin-4-yl)amino)-5-(4-ethyl-4,7-diazaspiro[2.5]octan-7-yl)phenyl)acrylamide] | 33.4° | 31.8° | 33.7° |  |  |  | 22.37 μm | 72.86 μm |  |  | 99.83 | 99.81 | 99.85 | 99.83 | 99.87 | 99.87 | 0.10% | better stability | significantly better than the amorphous form in terms of fluidity | significantly better than the amorphous form in terms of hygroscopicity
C=CC(=O)Nc1cc(N2CCN(CC)C3(CC3)C2)ccc1Nc1cc(N(C)C(=O)Nc2c(Cl)c(OC)cc(OC)c2Cl)ncn1 [Crystal form B, N-(2-((6-(3-(2,6-dichloro-3,5-dimethoxyphenyl)-1-methylureido)pyrimidin-4-yl)amino)-5-(4-ethyl-4,7-diazaspiro[2.5]octan-7-yl)phenyl)acrylamide] | 34.6° | 35.7° | 35.2° |  |  |  | 21.98 μm | 71.56 μm |  |  | 99.69 | 99.72 | 99.75 | 99.73 | 99.75 | 99.73 | 0.12% | better stability | significantly better than the amorphous form in terms of fluidity | significantly better than the amorphous form in terms of hygroscopicity
